Assay results as given in publication PMC12566520, “Targeted Modification of the Antimicrobial Peptide DGL13K Reveals a Naturally Optimized Sequence for Topical Applications” (Microorganisms, 2025).
Read-outs that look alike come from different tables or passages of the source. Square brackets hold non-standard residues; d marks the D form. Ends that are not written are not given here. Peptide text beside a SMILES is read from it. d(aIle) = CC[C@H](C)[C@@H](N)C(=O)O; aIle = CC[C@@H](C)[C@H](N)C(=O)O

Legend:
[1] = system: Staphylococcus aureus Xen36; format: cell-based; conditions: for MIC S. aureus: overnight 37 °C, OD630; for Antibacterial activity against S. aureus compared with unmodified peptide (in words): MIC assay
Method: (§1) Pseudomonas aeruginosa Xen41 and Staphylococcus aureus Xen36 were obtained from Xenogen (Alameda, CA; now Revvity, Waltham, MA, USA) and Revvity, respectively, and stored at −80 °C in 10% glycerol. P. aeruginosa were cultured in Luria-Bertani broth while S. aureus were cultured in Todd-Hewitt Broth (Difco, Franklin Lakes, NJ, USA) overnight at 37 °C and shaking at 200 rpm. Cultures typically reached an optical density at 600 nm of 1.7 for P. aeruginosa and 1.3 for S. aureus.
(§2) MIC assays were performed as previously described. Briefly, overnight cultures of P. aeruginosa Xen41 were diluted to 10^5 CFU/mL in Mueller-Hinton Broth (Difco) while S. aureus Xen36 were similarly diluted in Todd-Hewitt Broth. Bacteria (100 µL) were added to 20 µL of 2-fold peptide dilutions in 10% PBS in 96-well polypropylene culture plates. The plates were incubated overnight at 37 °C with gentle rocking and then the optical density at 630 nm (OD630) was recorded in a BioTek Synergy HT plate reader (BioTek, Winooski, VT, USA; now Agilent, Santa Clara, CA, USA). Bioluminescence was recorded for quality control of the bioluminescent bacteria.

[2] = system: Pseudomonas aeruginosa Xen41; format: cell-based; conditions: for MIC P. aeruginosa: overnight 37 °C, OD630
Method: as §1, §2

[3] = aqueous stock 10 mg/mL in dH2O or 0.01% acetic acid, 4 °C, more than 2 years; cited from earlier work
From the text: Peptides are typically considered inherently unstable in aqueous solutions [57].

human red blood cells = conditions: cited from earlier work
From the text: The selective activity of many AMPs exploits the compositional differences between prokaryotic and eukaryotic membranes to avoid mammalian cell toxicity. The selectivity of AMPs is typically determined as the ratio between the hemolytic concentration and the MIC of the AMP (therapeutic index). One measure of the hemolytic activity is the peptide concentration leading to 50% lysis of red blood cells (HC50 = hemolytic concentration 50). This assay is routinely used for screening purposes and the lack of red cell toxicity is an important consideration for IV delivery of an AMP. ...

Enterococcus faecalis = conditions: cited from earlier work
From the text: Proteolytic processing of AMPs has been cited as a concern for their development for clinical use. DGL13K was originally designed to overcome proteolytic processing of the L-enantiomer in cultures of P. aeruginosa.

P. aeruginosa [4] = assay: Heat stability (MIC assay after heating); format: physicochemical, Pseudomonas aeruginosa; conditions: 1 mg/mL in 10% PBS, 80 °C for 60 min vs room temperature; read-out MIC assay against P. aeruginosa; duplicates, N = 2, repeated with similar results
Method: Peptides were diluted to 1 mg/mL in sterile 10% PBS (1 part PBS, 9 parts dH2O) and heated for 60 min in a 0.5 mL microcentrifuge tube in a water bath set at 80 °C. Control samples were similarly incubated at room temperature. The samples were used for MIC assays, as described below.
as §2
Figure 1 Heat stability of GL13K peptides. LGL13K (circles) or DGL13K (boxes) were incubated for 1 h at room temperature (open symbols) or 80 °C (closed symbols) and then used for an MIC assay against P. aeruginosa. Duplicate samples were tested and plotted as mean ± range, N = 2. The experiment was repeated with similar results.

P. aeruginosa [5] = system: P. aeruginosa; design: method as in PMID 23917321; conditions: bacterial proteases, cultures of Gram-negative P. aeruginosa; cited from earlier work
[6] = cited from earlier work
[7] = Table 2, Xen36, 10^5 CFU/mL in Todd-Hewitt Broth, median MIC of 1–3 independent experiments
[8] = Table 2, Xen41, 10^5 CFU/mL in Mueller-Hinton Broth, median MIC of 1–3 independent experiments
[9] = Table 3, Xen41, Mueller-Hinton Broth, median MIC of 2–4 independent experiments, values outside tested range set at 1000 µg/mL
[10] = Table 3, Xen36, Todd-Hewitt Broth, median MIC of 2–4 independent experiments, values outside tested range set at 1000 µg/mL

Compound: CC[C@H](C)[C@@H](NC(=O)[C@@H](CCCCN)NC(=O)CN)C(=O)N[C@@H](C(=O)N[C@H](CCCCN)C(=O)N[C@H](CC(C)C)C(=O)N[C@H](CCCCN)C(=O)N[C@H](C)C(=O)N[C@H](CO)C(=O)N[C@H](CC(C)C)C(=O)N[C@H](CCCCN)C(=O)N[C@H](CC(C)C)C(=O)N[C@H](CC(C)C)C(N)=O)[C@@H](C)CC [D-allo-Ile GL13K] (H-G[dK][d(aIle)][d(aIle)][dK][dL][dK][dA][dS][dL][dK][dL][dL]-NH2; N-terminus assumed)
- MIC S. aureus [1, 7]: 2.6 µg/mL
- MIC P. aeruginosa [2, 8]: 5.2 µg/mL

Compound: CC[C@@H](C)[C@@H](NC(=O)[C@@H](Cc1c[nH]c2ccccc12)NC(=O)[C@@H](CCCCN)NC(=O)[C@@H](CCCCN)NC(=O)CN)C(=O)N[C@H](CCCCN)C(=O)N[C@H](CCCCN)C(=O)N[C@H](C)C(=O)N[C@H](CO)C(=O)N[C@H](CCCCN)C(=O)N[C@H](Cc1c[nH]c2ccccc12)C(=O)N[C@H](CC(C)C)C(=O)O [DGL12W] (H-G[dK][dK][dW][dI][dK][dK][dA][dS][dK][dW][dL]-OH; N-terminus assumed)
- Antibacterial activity against S. aureus compared with unmodified peptide (in words) [1]: lost its activity
- MIC P. aeruginosa [2, 9]: 13 µg/mL

Compound: CC[C@@H](C)[C@@H](NC(=O)[C@@H](CCCCN)NC(=O)CN)C(=O)N[C@@H](C(=O)N[C@H](CCCCN)C(=O)N[C@H](CC(C)C)C(=O)N[C@H](CCCCN)C(=O)N[C@H](C)C(=O)N[C@H](CO)C(=O)N[C@H](CC(C)C)C(=O)N[C@H](CCCCN)C(=O)N[C@H](CC(C)C)C(=O)N[C@H](CC(C)C)C(N)=O)[C@H](C)CC [DGL13K] (H-G[dK][dI][dI][dK][dL][dK][dA][dS][dL][dK][dL][dL]-NH2; N-terminus assumed)
- Loss of antibacterial activity of aqueous solution after storage [3]: did not lose antibacterial activity
- HC50 (peptide concentration leading to 50% lysis of red blood cells) (human red blood cells): 500 to 1000 µg/mL
- Proteolytic degradation in cultures of Enterococcus faecalis (Enterococcus faecalis): resists proteolytic degradation
- Loss of activity after heating of solution (P. aeruginosa [4]): no loss of activity
- Proteolytic degradation in cultures of P. aeruginosa (P. aeruginosa [5]): not degraded
- stability of aqueous solution (no loss of antibacterial activity) [6]: > 2 years
- MIC S. aureus [1, 7]: 2.6 µg/mL
- MIC S. aureus [1, 10]: 1.3 µg/mL
- MIC P. aeruginosa [2, 8]: 7.8 µg/mL
- MIC P. aeruginosa [2, 9]: 5.2 µg/mL

Compound: CC[C@@H](C)[C@@H](NC(=O)[C@@H](CCCNC(=N)N)NC(=O)CN)C(=O)N[C@@H](C(=O)N[C@H](CCCNC(=N)N)C(=O)N[C@H](CC(C)C)C(=O)N[C@H](CCCNC(=N)N)C(=O)N[C@H](C)C(=O)N[C@H](CO)C(=O)N[C@H](CC(C)C)C(=O)N[C@H](CCCNC(=N)N)C(=O)N[C@H](CC(C)C)C(=O)N[C@H](CC(C)C)C(N)=O)[C@H](C)CC [DGL13R] (H-G[dR][dI][dI][dR][dL][dR][dA][dS][dL][dR][dL][dL]-NH2; N-terminus assumed)
- Antibacterial activity against S. aureus compared with unmodified peptide (in words) [1]: not different from the parent peptide
- MIC S. aureus [1, 10]: 2.6 µg/mL

Compound: CC[C@@H](C)[C@H](NC(=O)[C@H](CCCCN)NC(=O)CN)C(=O)N[C@H](C(=O)N[C@@H](CCCCN)C(=O)N[C@@H](CC(C)C)C(=O)N[C@@H](CCCCN)C(=O)N[C@@H](C)C(=O)N[C@@H](CO)C(=O)N[C@@H](CC(C)C)C(=O)N[C@@H](CCCCN)C(=O)N[C@@H](CC(C)C)C(=O)N[C@@H](CC(C)C)C(N)=O)[C@H](C)CC [L-allo-Ile GL13K] (H-GK[aIle][aIle]KLKASLKLL-NH2; N-terminus assumed)
- MIC S. aureus [1, 7]: 83.3 µg/mL
- MIC P. aeruginosa [2, 8]: 10.4 µg/mL

Compound: GKIIKLKASLKLL-NH2 [LGL13K]
- HC50 (peptide concentration leading to 50% lysis of red blood cells) (human red blood cells): 500 to 1000 µg/mL
- Proteolytic degradation in cultures of P. aeruginosa (P. aeruginosa [5]): susceptible to bacterial proteases
- MIC S. aureus [1, 7]: 83.3 µg/mL
- MIC P. aeruginosa [2, 8]: 10.4 µg/mL

Compound: GKIIKLKASLKLL-NH2 [PEG-LGL13K, N-terminally PEGylated version of LGL13K]
- Fold increase in MIC for S. aureus versus unmodified parent peptide ([1]; compared with DGL13K (or LGL13K for PEG-LGL13K), Figure 4): two
- Fold increase in MIC for P. aeruginosa versus unmodified parent peptide ([2]; compared with DGL13K (or LGL13K for PEG-LGL13K), Figure 4 / Table 3): three-fold
